Measurements published in US10681909B2, “Herbicidal triazoles” (FMC Corporation, priority 2014, dated 2020).

Columns and labels:
[1] = system: wheat; assay: Test A postemergence; assay type: in vivo, Triticum aestivum; settings: 0 to 100 scale (0 no effect, 100 complete control), approx. 10 d
Outline: (§1)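 Herbicidal response was scored on plants treated pre- or postemergence with surfactant-containing, non-phytotoxic solvent formulations. Preemergence meant a directed spray onto soil (loam–sand) holding sown seed; postemergence plants were at one to two leaves.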

[2] = system: sedge, umbrella; assay: Test B flooded paddy test; assay type: in vivo, Cyperus difformis; settings: 250 g ai/ha, applied to paddy water at 2-leaf stage, visual rating after 13 to 15 d, scale 0 (no effect) to 100 (complete control)
Outline: (§2)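 Pots were flooded to 3 cm above the soil at treatment, and compounds were applied directly into the paddy water. That depth was held throughout. After 13 to 15 d in a greenhouse, plants were rated visually against untreated controls.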

[3] = system: foxtail, giant; assay: Test A preemergence; assay type: in vivo, Setaria faberii; settings: 0 to 100 scale (0 no effect, 100 complete control)
Outline: as §1

[4] = system: soybean; assay: Test C postemergence; assay type: in vivo, Glycine max
Outline: (§3)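 Surfactant-containing, non-phytotoxic solvent formulations of each compound were applied either preemergence to seeds in a loam soil–sand blend or postemergence to plants 2 to 18 cm tall (1- to 4-leaf stage). Postemergence plants were grown in peat moss–vermiculite medium.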

[5] = system: crabgrass, large; assay: Test C postemergence; assay type: in vivo, Digitaria sanguinalis
Outline: as §3

[6] = system: lambsquarters; assay: Test C postemergence; assay type: in vivo, Chenopodium album
Outline: as §3

[7] = system: waterhemp; assay: Test C postemergence; assay type: in vivo, Amaranthus rudis
Outline: as §3

[8] = system: morningglory; assay: Test C postemergence; assay type: in vivo, Ipomoea coccinea
Outline: as §3

[9] = system: barnyardgrass; assay: Test B flooded paddy test; assay type: in vivo, Echinochloa crus-galli; settings: 250 g ai/ha, applied to paddy water at 2-leaf stage, visual rating after 13 to 15 d, scale 0 (no effect) to 100 (complete control)
Outline: as §2

[10] = system: corn; assay: Test C postemergence; assay type: in vivo, Zea mays
Outline: as §3

[11] = system: barnyardgrass; assay: Test A preemergence; assay type: in vivo, Echinochloa crus-galli; settings: 0 to 100 scale (0 no effect, 100 complete control)
Outline: as §1

[12] = system: barnyardgrass; assay: Test C preemergence; assay type: in vivo, Echinochloa crus-galli; settings: for Plant response rating (scale of 0 to 100 where 0 is no effect and 100 is complete control): Barnyardgrass, preemergence; for Barnyardgrass plant response rating (0 to 100): Preemergence, visual rating after 13 to 15 d
Source text: Seeds of plant species selected from blackgrass (Alopecurus myosuroides), ryegrass, Italian (Italian ryegrass, Lolium multiflorum), wheat (winter wheat, Triticum aestivum), galium (catchweed bedstraw, Galium aparine), corn (Zea mays), crabgrass, large (large crabgrass, Digitaria sanguinalis), foxtail, giant, (giant foxtail, Setaria faberii), johnsongrass (Sorghum halepense), lambsquarters (Chenopodium album), morningglory (Ipomoea coccinea), nutsedge, yellow (yellow nutsedge, Cyperus esculentus), pigweed (Amaranthus retroflexus), ragweed (common ragweed, Ambrosia elatior), soybean (Glycine max), barnyardgrass (Echinochloa crus-galli), oilseed rape (Brassica napus), waterhemp (common waterhemp, Amaranthus rudis), and velvetleaf (Abutilon theophrasti) were planted into a blend of loam soil and sand and treated preemergence with test chemicals formulated in a non-phytotoxic solvent mixture which included a surfactant. At the same time, plants selected from these crop and weed species and also chickweed (common chickweed, Stellaria media), oat, wild (wild oat, Avena fatua), and kochia (Kochia scoparia), were planted in pots containing Sunshine Redi-Earth® planting medium comprising spaghnum peat moss, vermiculite, starter nutrients and dolomitic limestone and treated with postemergence applications of test chemicals formulated in the same manner. Plants ranged in height from 2 to 18 cm (1- to 4-leaf stage) for postemergence treatments. […] A dash (-) response means no test result.

[13] = system: galium; assay: Test C postemergence; assay type: in vivo, Galium aparine
Outline: as §3

[14] = system: pigweed; assay: Test A postemergence; assay type: in vivo, Amaranthus retroflexus; settings: 0 to 100 scale (0 no effect, 100 complete control), approx. 10 d
Outline: as §1

## CCOc1nc(-c2ccccc2)nn1Cc1ccnc(C(F)(F)F)c1 [Compound 27]
[1]; 125 g ai/ha
  Plant response rating, Wheat: 20
[1]; 500 g ai/ha
  Plant response rating, Wheat: 70
[2]
  Plant response rating, Sedge, Umbrella, Flood: 95
[3]; 125 g ai/ha
  Plant response rating, Foxtail, Giant: 100
[3]; 500 g ai/ha, approx. 10 d
  Plant response rating, Foxtail, Giant: 100
[4]; 31 g ai/ha
  Plant response rating (scale of 0 to 100 where 0 is no effect and 100 is complete control): 70
[4]; 62 g ai/ha
  Plant response rating (scale of 0 to 100 where 0 is no effect and 100 is complete control): 95
[4]; 125 g ai/ha
  Plant response rating (scale of 0 to 100 where 0 is no effect and 100 is complete control): 65
[4]; 250 g ai/ha
  Plant response rating (scale of 0 to 100 where 0 is no effect and 100 is complete control): 70
[5]; 31 g ai/ha
  Plant response rating (scale of 0 to 100 where 0 is no effect and 100 is complete control): 10
[5]; 62 g ai/ha
  Plant response rating (scale of 0 to 100 where 0 is no effect and 100 is complete control): 20
[5]; 125 g ai/ha
  Plant response rating (scale of 0 to 100 where 0 is no effect and 100 is complete control): 15
[5]; 250 g ai/ha
  Plant response rating (scale of 0 to 100 where 0 is no effect and 100 is complete control): 45
[6]; 31 g ai/ha
  Plant response rating (scale of 0 to 100 where 0 is no effect and 100 is complete control): 85
[6]; 62 g ai/ha
  Plant response rating (scale of 0 to 100 where 0 is no effect and 100 is complete control): 95
[6]; 125 g ai/ha
  Plant response rating (scale of 0 to 100 where 0 is no effect and 100 is complete control): 98
[6]; 250 g ai/ha
  Plant response rating (scale of 0 to 100 where 0 is no effect and 100 is complete control): 98
[7]; 31 g ai/ha
  Plant response rating (scale of 0 to 100 where 0 is no effect and 100 is complete control): 90
[7]; 62 g ai/ha
  Plant response rating (scale of 0 to 100 where 0 is no effect and 100 is complete control): 95
[7]; 125 g ai/ha
  Plant response rating (scale of 0 to 100 where 0 is no effect and 100 is complete control): 95
[7]; 250 g ai/ha
  Plant response rating (scale of 0 to 100 where 0 is no effect and 100 is complete control): 98
[8]; 31 g ai/ha
  Plant response rating (scale of 0 to 100 where 0 is no effect and 100 is complete control): 85
[8]; 62 g ai/ha
  Plant response rating (scale of 0 to 100 where 0 is no effect and 100 is complete control): 80
[8]; 125 g ai/ha
  Plant response rating (scale of 0 to 100 where 0 is no effect and 100 is complete control): 90
[8]; 250 g ai/ha
  Plant response rating (scale of 0 to 100 where 0 is no effect and 100 is complete control): 85
[9]
  Plant response rating, Barnyardgrass, Flood: 50
[10]; 31 g ai/ha
  Plant response rating (scale of 0 to 100 where 0 is no effect and 100 is complete control): 10
[10]; 62 g ai/ha
  Plant response rating (scale of 0 to 100 where 0 is no effect and 100 is complete control): 15
[10]; 125 g ai/ha
  Plant response rating (scale of 0 to 100 where 0 is no effect and 100 is complete control): 10
[10]; 250 g ai/ha
  Plant response rating (scale of 0 to 100 where 0 is no effect and 100 is complete control): 25
[11]; 125 g ai/ha
  Plant response rating, Barnyardgrass: 100
[11]; 500 g ai/ha, approx. 10 d
  Plant response rating, Barnyardgrass: 100
[12]; 125 g ai/ha
  Plant response rating (scale of 0 to 100 where 0 is no effect and 100 is complete control): 100
[12]; 250 g ai/ha
  Plant response rating (scale of 0 to 100 where 0 is no effect and 100 is complete control): 100
[12]; 31 g ai/ha
  Barnyardgrass plant response rating (0 to 100): 70
[12]; 62 g ai/ha
  Barnyardgrass plant response rating (0 to 100): 90
[13]; 31 g ai/ha
  Plant response rating (scale of 0 to 100 where 0 is no effect and 100 is complete control): 90
[13]; 62 g ai/ha
  Plant response rating (scale of 0 to 100 where 0 is no effect and 100 is complete control): 90
[13]; 125 g ai/ha
  Plant response rating (scale of 0 to 100 where 0 is no effect and 100 is complete control): 85
[13]; 250 g ai/ha
  Plant response rating (scale of 0 to 100 where 0 is no effect and 100 is complete control): 90
[14]; 125 g ai/ha
  Plant response rating, Pigweed: 100
[14]; 500 g ai/ha
  Plant response rating, Pigweed: 100
